Test results published in US10766912B2 (priority 2017, dated 2020).
pEC50: −log10 of the molar value. Read-outs that look alike come from different tables or passages of the source.

Assays:
[1] = Assay Example 2: cell viability assay (CellTiter-Fluor), GT1b wild-type replicon plate; format: cell-based; details: human, Huh-7 cells with GT1b wild-type replicon, read-out: CC50 Value GT1b-wt
Method: (§1) Cells: Huh-7 cells are liver cancer cell strains (from AppTec, USA), HCV GT1a and GT1b wild type (wt) replicons, GT1b/3a, GT1b/4a, GT1b/5a and GT1b/6a NS5A chimeric replicons.
(§2) Treatment of Compound: According to the assay final concentrations of the compounds in Table 5, DMSO stock solutions of the compounds were diluted and then added to a 96-well assay plate. The final concentration of DMSO was 0.5%.
(§3) The preparation of cells: After replicon plasmid DNA was linearized with a corresponding restriction enzyme, the DNA was transcribed into RNA by using T7 RNA polymerase. Replicon RNA prepared by transcription in vitro was transfected into Huh-7 cells by electroporation. Transfected cells were seeded at a density of 10,000 cells per well into the 96-well assay plate containing the diluted compounds, and then placed in a 37° C. incubator with 5% CO2 and cultured for 3 days.
Cell viability assay: A cell growth fluorescent titration detection reagent CellTiter-Fluor was added to the 96-well plate of the GT1b wild-type replicon. After the cells were cultured for 1 hour in a 37° C. incubator with 5% CO2, the fluorescence signal value (RFU) was detected by Envision, and the original data (RFU) was used for the calculation of the cytotoxicity of the compounds.
(§4) The cytotoxicity of the compounds was calculated by using the equation below: Cell Viability %=(CPD−HPE)/(ZPE−HPE)×100%* The activity of the compounds was calculated by using the equation below: Inhibition %=(ZPE−CPD)/(ZPE−HPE)×100%*
(§5) The cell viability percentages (Viability %) and the inhibition percentages (Inhibition %) were imported into GraphPad Prism software, respectively, and curves were fitted by using nonlinear regression method to obtain the corresponding curves of the compounds, and the cytotoxicity (CC50) thereof and the inhibitory activity (EC50) values against the HCV replicon thereof.

[2] = system: HCV GT1b wild type (wt) replicon; assay: Assay Example 2: activity against HCV GT1b wild-type replicon; format: cell-based; details: Hepatitis C virus, read-out: EC50 Value GT1b-wt
Method: as §1, §2, §3
(§6) Drug activity assay: Luminescence signal value (RLU) was detected with Envision within 15 minutes using the luciferase assay reagent Britelite plus, and the original data (RLU) was used for the calculation of the activity of the compounds.
as §4, §5

[3] = Assay Example 3: parallel cytotoxicity assay (alamarBlue) without viral infection; format: cell-based; details: human, Huh7.5.1 cells without viral infection, no viral infection, read-out: CC50 Value HCVcc
Method: (§7) Cells: Huh7.5.1 cells and hepatitis C virus HCVcc (GT2a, JFH-1) infection system.
(§8) Treatment of Compound: According to the assay final concentrations of the compounds in Table 6, DMSO stock solutions of the compounds were diluted and then added to a 96-well assay plate. The final concentration of DMSO was 0.5%.
(§9) Viral infection: Huh7.5.1 cells were seeded in a 96-well cell culture plate, and the cells were cultured overnight at 37° C. in an incubator with 5% CO2 for later use. The compound and the HCVcc virus solution (MOI=0.1) were simultaneously added to the cells, and the virus infection was cultured for 3 days. Parallel cytotoxicity assay was identical to the method for the inhibition of the virus but without viral infection.
Cell viability assay: Cell viability was detected by the addition of alamarBlue assay reagent. The original data (RFU) was used for the calculation of the cytotoxicity of the compounds.
The cytotoxicity of the compounds was calculated by using the equation below: Cell Viability %=CPD/CC×100%*
(§10) The cell viability percentages (Cell Viability %) and the compound activity percentages (Inhibition %) were imported into GraphPad Prism software, respectively, and curves were fitted by using nonlinear regression method to obtain the corresponding curves of the compounds, and the cytotoxicity (CC50) thereof and inhibitory activity (EC50) values against the HCV replicon thereof.

[4] = system: HCV GT1b/6a NS5A chimeric replicon; assay: Assay Example 2: activity against GT1b/6a NS5A chimeric replicon; format: cell-based; details: Hepatitis C virus, Huh-7, 72 h, read-out: EC50 Value GT1b/6a-NS5A-wt
Method: as §1, §2, §3, §6, §4, §5

[5] = system: HCV GT1b/5a NS5A chimeric replicon; assay: Assay Example 2: activity against GT1b/5a NS5A chimeric replicon; format: cell-based; details: Hepatitis C virus, Huh-7, 72 h, read-out: EC50 Value GT1b/5a-NS5A-wt
Method: as §1, §2, §3, §6, §4, §5

[6] = system: HCV GT1b/3a NS5A chimeric replicon; assay: Assay Example 2: activity against GT1b/3a NS5A chimeric replicon; format: cell-based; details: Hepatitis C virus, Huh-7, 72 h, read-out: EC50 Value GT1b/3a-NS5A-wt
Method: as §1, §2, §3, §6, §4, §5

[7] = system: hepatitis C virus HCVcc (GT2a, JFH-1); assay: Assay Example 3: activity against infective hepatitis C virus HCVcc (GT2a, JFH-1); format: cell-based; details: Huh-7.5.1, 72 h, read-out: EC50 Value GT2a HCVcc
Method: as §7, §8, §9
Drug activity assay: The activity of hRLuc was detected by the addition of Renilla luciferase assay reagent. The original data (RLU) was used for the calculation of the activity of the compounds.
The activity of the compounds was calculated by using the equation below: Inhibition %=(CPD−VC)/(CC−VC)×100%*
as §10

[8] = system: HCV GT1b/4a NS5A chimeric replicon; assay: Assay Example 2: activity against GT1b/4a NS5A chimeric replicon; format: cell-based; details: Hepatitis C virus, Huh-7, 72 h, read-out: EC50 Value GT1b/4a-NS5A-wt
Method: as §1, §2, §3, §6, §4, §5

[9] = system: HCV GT1a wild-type replicon; assay: Assay Example 6: drug resistance, activity against HCV GT1a wild-type replicon; format: cell-based; details: Hepatitis C virus, 72 h, Huh-7 cells, transient transfection, 3 days, read-out: GT1a-wt EC50 value
Method: (§11) Cells: Huh-7 cells are liver cancer cell strains (from AppTec, USA), HCVGT1a wild-type replicon and GT1a-NS5A-Y93H and GT1a-NS5A-L31V mutant replicons
(§12) Treatment of Compound: According to the assay final concentrations of the compounds in Table 11, DMSO stock solutions of the compounds were diluted and then added to a 96-well assay plate. The final concentration of DMSO was 0.5%.
as §3
(§13) Compound activity assay: Luminescence signal value (RLU) was detected with Envision within 5 minutes by using the luciferase assay reagent Britelite plus, and the original data (RLU) was used for the calculation of the activity of the compounds.
(§14) The activity of the compounds was calculated by using the equation below: Inhibition %=(CPD−ZPE)/(HPE−ZPE)×100%*
(§15) The compound activity percentages (Inhibition %) were imported into GraphPad Prism software, and curves were fitted by using nonlinear regression method to obtain the corresponding curves of the compounds and the inhibitory activity (EC50) values against the HCV replicon thereof.

[10] = system: GT1a-NS5A-Y93H mutant replicon; assay: Assay Example 6: drug resistance, activity against GT1a-NS5A-Y93H mutant replicon; format: cell-based, hepatitis C virus; details: for GT1a-NS5A-Y93H Fold change: EC50 mutant versus GT1a-wt; for pEC50: Hepatitis C virus, GT1A, Huh-7, 72 h, read-out: GT1a-NS5A-Y93H EC50 value
Method: as §11, §12, §3, §13, §14, §15

[11] = system: GT1a-NS5A-L31V mutant replicon; assay: Assay Example 6: drug resistance, activity against GT1a-NS5A-L31V mutant replicon; format: cell-based, hepatitis C virus; details: for GT1a-NS5A-L31V Fold change: EC50 mutant versus GT1a-wt; for pEC50: Hepatitis C virus, GT1A, Huh-7, 72 h, read-out: GT1a-NS5A-L31V EC50 value
Method: as §11, §12, §3, §13, §14, §15

[12] = system: HCV GT1a wild type (wt) replicon; assay: Assay Example 2: activity against HCV GT1a wild-type replicon; format: cell-based; details: Hepatitis C virus, 72 h, Huh-7 cells, transient transfection, 3 days
Method: as §1, §2, §3, §6, §4, §5

[13] = Huh-7 cells transfected with HCV GT1b wild-type replicon RNA
[14] = 72 h, Huh-7 cells, transient transfection, 3 days

SMILES | CC50 at 3 days [1, 13] [nM] | pEC50 [2, 14] | CC50 at 3 days [3] [nM] | pEC50 [4] | pEC50 [5] | pEC50 [6] | pEC50 [7] | pEC50 [8] | pEC50 [9] | GT1a-NS5A-Y93H Fold change [10] | pEC50 [10] | GT1a-NS5A-L31V Fold change [11] | pEC50 [11] | pEC50 [12] | CC50 at 3 days [1] [nM] | pEC50 ([2]; Huh-7, 72 h)
COC[C@H]1C[C@@H](C(=O)Nc2ccc([C@H]3CC[C@H](c4cc5[nH]c([C@@H]6CCCN6C(=O)[C@@H](NC(=O)OC)[C@@H](C)OC)nc5cc4F)N3c3cc(F)c(N4CC[Si](C)(C)CC4)c(F)c3)cc2)N(C(=O)[C@@H](NC(=O)OC)[C@@H](C)OC)C1 [Compound 17b] | > 0.2 | 11.51 | > 0.1 | 11.96 | 11.33 | 11.24 | 11.57 | 11.78 |  |  |  |  |  |  |  | 
COC(=O)N[C@H](C(=O)N1CCC[C@H]1c1nc2cc([C@H]3CC[C@H](c4ccc5[nH]c([C@@H]6CCCN6C(=O)[C@@H](NC(=O)OC)[C@@H](C)OC)nc5c4)N3c3cc(F)c(N4CC[Si]5(CCCC5)CC4)c(F)c3)ccc2[nH]1)[C@@H](C)OC [Compound 7b] | > 0.2 | 11.48 |  |  |  | 10.99 |  |  | 11.74 | 502 | 9.04 | 3.4 | 11.21 | 11.84 |  | 
COC[C@H]1C[C@@H](C(=O)Nc2ccc([C@H]3CC[C@H](c4ccc5nc([C@@H]6CCCN6C(=O)[C@@H](NC(=O)OC)[C@@H](C)OC)[nH]c5c4)N3c3cc(F)c(N4CC[Si](C)(C)CC4)c(F)c3)cc2)N(C(=O)[C@@H](NC(=O)OC)[C@@H](C)OC)C1 [Compound 18b] | > 0.2 | 11.59 | > 0.1 | 11.76 | 11.35 | 11.15 | 11.94 |  |  |  |  |  |  |  |  | 
COC(=O)N[C@H](C(=O)N1CCC[C@H]1C(=O)Nc1ccc([C@H]2CC[C@H](c3cc4[nH]c([C@@H]5CCCN5C(=O)[C@@H](NC(=O)OC)[C@@H](C)OC)nc4cc3F)N2c2cc(F)c(N3CC[Si](C)(C)CC3)c(F)c2)cc1)[C@@H](C)OC [Compound 14b] | > 0.2 | 11.54 | > 0.1 | 11.95 | 11.27 | 11.21 |  | 11.80 | 11.54 |  |  | 11.0 | 10.49 | 11.97 |  | 
COC(=O)N[C@H](C(=O)N1CCC[C@H]1c1nc2cc([C@H]3CC[C@H](c4cc5nc([C@@H]6CCCN6C(=O)[C@@H](NC(=O)OC)[C@@H](C)OC)[nH]c5cc4F)N3c3cc(F)c(N4CC[Si](C)(C)CC4)c(F)c3)c(F)cc2[nH]1)[C@@H](C)OC [Compound 9b] | > 0.2 | 11.28 | > 0.1 | 11.95 | 11.22 | 11.42 |  | 11.60 | 11.70 | 20.0 | 10.40 | 0.9 | 11.77 | 11.99 |  | 
COC(=O)N[C@H](C(=O)N1CCC[C@H]1C(=O)Nc1ccc([C@@H]2CC[C@@H](c3ccc(NC(=O)[C@@H]4CCCN4C(=O)[C@@H](NC(=O)OC)[C@@H](C)OC)cc3)N2c2cc(F)c(N3CC[Si]4(CCCC4)CC3)c(F)c2)cc1)[C@@H](C)OC [Compound 3a] |  |  |  | 11.35 |  | 11.20 |  |  |  |  |  |  |  |  | > 0.2 | 11.88
